Measured values published in patent publication US20040260084A1, “Novel c-3 s/o-and s/n formaldehe acetal derivatives of cephalosporins and their use as antibotics” (priority 2001, published 2004).

Legend:
[1] = tested on: E. coli 3981 TEM-1; assay: In vivo activity, experimental systemic infection in mice; conditions: Escherichia coli
Description: In vivo activity (ED50) was determined. Mice were infected intraperitoneally with ca. […] of E. coli 3981 TEM-1. Untreated animals died within 48 h after infection. Compounds were administered by oral or subcutaneous route a first time 10 min after infection and a second time 4 h later. The 50% effective dose (ED50) was calculated by the Spearman-Kärber method from the percentages of animals surviving to day 7 at each dose.

[2] = Blood serum stability, agar diffusion test with Escherichia coli TEM 1; assay type: in vitro ADME; conditions: sterile bovine serum (OXOID), 37° C.
Description: The stability in blood serum was determined microbiologically using agar diffusion test with Escherichia coli TEM 1. The compounds I were incubated with sterile bovine serum (OXOID) at 37° C. At 0 h, 1 h, 2 h and 4 h intervals aliquot samples were spotted and remaining amounts of active antibiotic were calculated from the inhibition diameters (18-30 mm) in comparison with those (15-30 mm) obtained with 30 μg, 15 μg, 7.5μ and 3.75 μg of antibiotic.

[3] = Chemical stability, half-life of hydrolysis by UV spectroscopy; assay type: physicochemical; conditions: 37° C.
Description: The half-lives (h) of hydrolysis was determined at 37° C. by UV spectroscopy in physiological phosphate buffer and in physiological NaCl solution containing 0.01 N HCl.

[4] = tested on: Staph. aureus 25768; assay: MIC, agar dilution (DIFCO Bacto Nutrient Agar); assay type: cell-based
Description: (§1) The plates were then inoculated with a bacterial suspension obtained by diluting an overnight culture (37° C.) in DIFCO Bacto Nutrient Broth (pH 6.8) with sterile 1% NaCl (1:1000) using a 19 pin inoculator (Mast Diagnostics). MIC's […] were determined 18 h after incubation at 37° C.
(§2) Inoculum effect after inoculation with an non-diluted overnight culture (in comparison to Table 1). MIC's (μ/ml) were determined 18 h after incubation at 37° C.

[5] = tested on: Staph. aureus resistant; assay: MIC, agar dilution (DIFCO Bacto Nutrient Agar); assay type: cell-based
Description: as §1, §2

[6] = tested on: Escherichia coli TEM 1; assay: MIC, agar dilution (DIFCO Bacto Nutrient Agar); assay type: cell-based
Description: as §1, §2

[7] = tested on: Staph. aureus DSM 1104; assay: MIC, agar dilution (DIFCO Bacto Nutrient Agar); assay type: cell-based
Description: as §1, §2

[8] = tested on: Escherichia coli DSM 1103; assay: MIC, agar dilution (DIFCO Bacto Nutrient Agar); assay type: cell-based
Description: as §1, §2

[9] = pH 2, physiological NaCl solution containing 0.01 N HCl
[10] = pH 7.4, physiological phosphate buffer
[11] = Staph. aureus 25768, inoculum ca. 10^4, 18 h at 37° C.
[12] = Staph. aureus 25768, inoculum ca. 10^7 (non-diluted overnight culture), 18 h at 37° C.
[13] = inoculum ca. 10^4, 18 h at 37° C.
[14] = inoculum ca. 10^7 (non-diluted overnight culture), 18 h at 37° C.
[15] = Escherichia coli TEM 1, inoculum ca. 10^4, 18 h at 37° C.
[16] = Escherichia coli TEM 1, inoculum ca. 10^7 (non-diluted overnight culture), 18 h at 37° C.
[17] = Staph. aureus DSM 1104, inoculum ca. 10^4, 18 h at 37° C.
[18] = Staph. aureus DSM 1104, inoculum ca. 10^7 (non-diluted overnight culture), 18 h at 37° C.
[19] = Escherichia coli DSM 1103, inoculum ca. 10^4, 18 h at 37° C.
[20] = Escherichia coli DSM 1103, inoculum ca. 10^7 (non-diluted overnight culture), 18 h at 37° C.

COCSC1=C(C(=O)[O-])N2C(=O)[C@@H](NC(=O)/C(=N\OC)c3csc(N)n3)[C@H]2SC1.[K+] [Cephalosporin 1a, potassium (6R,7R)-7-[(Z)-2-(2-amino-thiazol-4-yl)-2-methoximino-acetylamino]-3methoxymethylthio-8-oxo-5-thia-1-aza-bicyclo[4.2.0]oct-2-ene-2-carboxylate]
ED50 ([1]; 3981TEM1, po): 8.35 mg/kg | ED50 ([1]; 3981TEM1, sc): 0.84 mg/kg | half-life [2]: 0.2 days | half-life [3, 9]: 15.6 days | half-life [3, 10]: 16.9 days | MIC [4, 11]: 16 pig/ml | MIC [4, 12]: 32 μ/ml | MIC [5, 13]: 2 pig/ml | MIC [5, 14]: 4 μ/ml | MIC [6, 15]: 2 pig/ml | MIC [6, 16]: 2 μ/ml | MIC [7, 17]: 0.5 pig/ml | MIC [7, 18]: 0.5 μ/ml | MIC [8, 19]: 1 pig/ml | MIC [8, 20]: 1 μ/ml

COCSC1=C(C(=O)[O-])N2C(=O)[C@@H](NC(=O)/C(=N\OCC(=O)[O-])c3csc(N)n3)[C@H]2SC1.[K+].[K+] [Cephalosporin 1b, dipotassium (6R,7R)-7-[(Z)-2-(2-amino-thiazol-4-yl)-2-carboxy-methoximino-acetylamino]-3-methoxymethylthio-8-oxo-5-thia-1-aza-bicyclo[4.2.0]oct-2-ene-2-carboxylate]
half-life [2]: 0.113 days | half-life [3, 9]: 16.6 days | half-life [3, 10]: 17.5 days | MIC [4, 11]: >64 pig/ml | MIC [4, 12]: >64 μ/ml | MIC [5, 13]: 16 pig/ml | MIC [5, 14]: 32 μ/ml | MIC [6, 15]: 2 pig/ml | MIC [6, 16]: 2 μ/ml | MIC [7, 17]: 4 pig/ml | MIC [7, 18]: 4 μ/ml | MIC [8, 19]: 2 pig/ml | MIC [8, 20]: 2 μ/ml

COCSC1=C(C(=O)O)N2C(=O)[C@@H](NC(=O)[C@H](N)c3ccccc3)[C@H]2SC1 [Cephalosporin 1c, (2′R,6R,7R)-7-(2′amino-2′-phenylacetamino)-3-methoxymethylthio-8-oxo-5-thia-1-aza-bicyclo[4.2.0]oct-2-ene-2-carboxylic acid]
half-life [3, 9]: 7.12 days | half-life [3, 10]: 7.54 days | MIC [4, 11]: 8 pig/ml | MIC [4, 12]: 32 μ/ml | MIC [5, 13]: 2 pig/ml | MIC [5, 14]: 8 μ/ml | MIC [6, 15]: >64 pig/ml | MIC [6, 16]: 32 μ/ml | MIC [7, 17]: 0.2 pig/ml | MIC [7, 18]: 0.5 μ/ml | MIC [8, 19]: 4 pig/ml | MIC [8, 20]: 4 μ/ml
